The record followed here is US9738634B2, “Heterocyclic amide compound and herbicide” (SYNGENTA PARTICIPATIONS AG, priority 2013, dated 2017).

Format in all cases: in vivo
One series has as its system chickweed. The series is described as follows: Test Example 3: weedkilling efficacy through soil treatment; N: chickweed. The following applies: soil treatment, treatment dosage 315 g/ha. An excerpt:
(§1) Weedkilling Efficacy Test Through Soil Treatment
(§2) Sterilized diluvial soil was introduced into 21 cm long, 13 cm wide, 7 cm deep plastic boxes, and seeds of crabgrass, green foxtail, barnyard grass, wild oat, black-grass, Italian ryegrass, common wind-grass, Indian mallow, redroot pigweed, fig-leafed goosefoot, chickweed, catchweed, birds-eye speedwell, corn, soybean, rice, wheat, beet and rapeseed were each spot-sown, and covered with about 1.5 cm of soil. Next, emulsions of compounds of the present invention prepared according to compounding example 2 were diluted with water to give the specified dosages, and applied uniformly onto the soil surface with a small sprayer. The plants were grown by placing the plastic boxes in a greenhouse at 25 to 30° C., and 3 weeks after the pesticide treatment the effect on each type of plant was investigated on the basis of the assessment criteria of test example 1.
(§3) A: barnyard grass, B: bulrush, C: oval-leafed pondweed, D: crabgrass, E: green foxtail, F: barnyard grass, G: wild oat, H: black-grass, I: Italian ryegrass, J: common wind-grass, K: Indian mallow, L: redroot pigweed, M: fig-leafed goosefoot, N: chickweed, O: catchweed, p: birds-eye speedwell, a: transplanted rice, b: directly sown rice, c: corn, d: soybean, e: wheat, f: beet, g: rapeseed
(§4) Further, pesticide dosage (g/ha) indicates the concentration regulated such that treatment was with only the stated number of grams (g), when calculated per hectare (ha).

In a further series the test system is wild oat. The series is described as follows: Test Example 3: weedkilling efficacy through soil treatment; G: wild oat. The following applies: soil treatment, treatment dosage 315 g/ha.
Description: as §1, §2, §3, §4

Series [1] relates to bulrush. The series is described as follows: Test Example 1: weedkilling efficacy, preemergent weed treatment in the submerged state; B: bulrush. Conditions: treatment dosage 252 g/ha. An outline of the steps:
(§5)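 Submerged pre-emergence treatment, water-surface application of compound emulsion at g/ha dosages; 4 cm flooded alluvial soil, weeds sown and 2.5-leaf rice transplanted same day. Rated after 3 weeks, greenhouse.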

Series [2] concerns oval-leafed pondweed. Kind of series: Test Example 2: weedkilling efficacy, growth period weed treatment in the submerged state; C: oval-leafed pondweed. The following applies: treatment dosage 252 g/ha. An outline of the steps: (§6)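 Seedlings at 1-2 leaves in 4 cm-deep submerged alluvial soil received emulsion formulations on the water surface, dosed per hectare; effects were judged 3 weeks on.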

A further series relates to green foxtail. Kind of series: Test Example 3: weedkilling efficacy through soil treatment; E: green foxtail. The following applies: soil treatment, treatment dosage 315 g/ha.
Description: as §1, §2, §3, §4

The subject of another series is beet. The series is described as follows: Test Example 3: soil treatment, effect on crop; f: beet. The following applies: soil treatment, treatment dosage 315 g/ha.
Description: as §1, §2, §3, §4

In series [3] the test system is barnyard grass. Kind of series: Test Example 1: weedkilling efficacy, preemergent weed treatment in the submerged state; A: barnyard grass. Conditions: treatment dosage 252 g/ha. Put shortly:
as §5

Another series deals with soybean. The series is described as follows: Test Example 3: soil treatment, effect on crop; d: soybean. The following applies: soil treatment, treatment dosage 315 g/ha.
Description: as §1, §2, §3, §4

Another series deals with crabgrass. Kind of series: Test Example 3: weedkilling efficacy through soil treatment; D: crabgrass. Conditions: soil treatment, treatment dosage 315 g/ha.
Description: as §1, §2, §3, §4

The next series has as its system redroot pigweed. The series is described as follows: Test Example 3: weedkilling efficacy through soil treatment; L: redroot pigweed. Conditions: soil treatment, treatment dosage 315 g/ha.
Description: as §1, §2, §3, §4

A further series relates to transplanted rice. The series is described as follows: Test Example 1: preemergent weed treatment in the submerged state, effect on crop; a: transplanted rice. The following applies: treatment dosage 252 g/ha. An outline of the steps:
as §5

Series [4] concerns bulrush. The series is described as follows: Test Example 2: weedkilling efficacy, growth period weed treatment in the submerged state; B: bulrush. The following applies: treatment dosage 252 g/ha. An outline of the steps: as §6
For a further series, the system named is Italian ryegrass. Kind of series: Test Example 3: weedkilling efficacy through soil treatment; I: Italian ryegrass. The following applies: soil treatment, treatment dosage 315 g/ha.
Description: as §1, §2, §3, §4

Another series has as its system directly sown rice. Kind of series: Test Example 3: soil treatment, effect on crop; b: directly sown rice. Conditions: soil treatment, treatment dosage 315 g/ha.
Description: as §1, §2, §3, §4

The test system of the next series is Indian mallow. The series is described as follows: Test Example 3: weedkilling efficacy through soil treatment; K: Indian mallow. The following applies: soil treatment, treatment dosage 315 g/ha.
Description: as §1, §2, §3, §4

The test system of the next series is corn. The series is described as follows: Test Example 3: soil treatment, effect on crop; c: corn. The following applies: soil treatment, treatment dosage 315 g/ha.
Description: as §1, §2, §3, §4

Series [5] concerns oval-leafed pondweed. Kind of series: Test Example 1: weedkilling efficacy, preemergent weed treatment in the submerged state; C: oval-leafed pondweed. Conditions: treatment dosage 252 g/ha. An outline of the steps: as §5
The subject of series [6] is barnyard grass. Kind of series: Test Example 2: weedkilling efficacy, growth period weed treatment in the submerged state; A: barnyard grass. The following applies: treatment dosage 252 g/ha. Put shortly: as §6
The next series has as its system fig-leafed goosefoot. Kind of series: Test Example 3: weedkilling efficacy through soil treatment; M: fig-leafed goosefoot. The following applies: soil treatment, treatment dosage 315 g/ha.
Description: as §1, §2, §3, §4

Another series relates to wheat. Kind of series: Test Example 3: soil treatment, effect on crop; e: wheat. The following applies: soil treatment, treatment dosage 315 g/ha.
Description: as §1, §2, §3, §4

Another series relates to black-grass. Kind of series: Test Example 3: weedkilling efficacy through soil treatment; H: black-grass. The following applies: soil treatment, treatment dosage 315 g/ha.
Description: as §1, §2, §3, §4

SMILES strings stand for the structures.

`Cc1cccc(NC(=O)C(C)(C)N2COCN(c3ccccc3)C2=O)n1` [A-2-38]: the “N: chickweed, weedkilling efficacy grade” value in the series with chickweed is on record as 4 (weed kill ratio 70% or more, less than 90%). In addition, the “G: wild oat, weedkilling efficacy grade” value in the series with wild oat is given as 5 (weed kill ratio 90% or more, (practically complete withering)). Further, the “B: bulrush, weed kill grade” value in the series with bulrush [1] is on record as 5 (weed kill ratio 90% or more, (practically complete withering)). The “C (oval-leafed pondweed) weedkilling efficacy grade” value in the series with oval-leafed pondweed [2] is listed as 3 (weed kill ratio 40% or more, less than 70%). In the series with green foxtail, the “E: green foxtail, weedkilling efficacy grade” value (“E: green foxtail” for short) is given as 5 (weed kill ratio 90% or more, (practically complete withering)). Besides, the “f: beet, effect on crop grade” value with beet was 4 (weed kill ratio 70% or more, less than 90%). Besides, the “A: barnyard grass, weed kill grade” value with barnyard grass [3] is on record as 5 (weed kill ratio 90% or more, (practically complete withering)). Also, in the series with soybean, the “d: soybean, effect on crop grade” value is 2 (weed kill ratio 20% or more, less than 40%). Also, in the series with crabgrass, the “D: crabgrass, weedkilling efficacy grade” value was 5 (weed kill ratio 90% or more, (practically complete withering)). Also, the “L: redroot pigweed, weedkilling efficacy grade” value (“L: redroot pigweed” for short) in the series on redroot pigweed was 5 (weed kill ratio 90% or more, (practically complete withering)). Further, in the series on transplanted rice, the “a: transplanted rice, effect on crop grade” value (shortened to “a: transplanted rice, effect”) is on record as 0 (weed kill ratio 5% or less (practically no effect)). In addition, the “B (bulrush) weedkilling efficacy grade” value in the series on bulrush [4] was 5 (weed kill ratio 90% or more, (practically complete withering)). In addition, the “I: Italian ryegrass, weedkilling efficacy grade” value (from here on “I: Italian ryegrass”) in the series on Italian ryegrass is 5 (weed kill ratio 90% or more, (practically complete withering)). Besides, the “b: directly sown rice, effect on crop grade” value in the series on directly sown rice was 5 (weed kill ratio 90% or more, (practically complete withering)). The “K: Indian mallow, weedkilling efficacy grade” value (“K: Indian mallow” below) with Indian mallow is 2 (weed kill ratio 20% or more, less than 40%). Moreover, the “c: corn, effect on crop grade” value with corn was 2 (weed kill ratio 20% or more, less than 40%). Also, in the series on oval-leafed pondweed [5], the “C: oval-leafed pondweed, weed kill grade” value is on record as 4 (weed kill ratio 70% or more, less than 90%). Further, in the series with barnyard grass [6], the “A (barnyard grass) weedkilling efficacy grade” value is 3 (weed kill ratio 40% or more, less than 70%). The “M: fig-leafed goosefoot, weedkilling efficacy grade” value (“M: fig-leafed goosefoot” below) in the series with fig-leafed goosefoot is on record as 4 (weed kill ratio 70% or more, less than 90%). Moreover, the “e: wheat, effect on crop grade” value with wheat was 0 (weed kill ratio 5% or less (practically no effect)). In the series with black-grass, the “H: black-grass, weedkilling efficacy grade” value (shortened to “H: black-grass”) is 5 (weed kill ratio 90% or more, (practically complete withering)).
As for `CC(C)(C(=O)Nc1cccc(Cl)n1)N1COCN(c2ccccc2)C1=O` [A-2-07], the “N: chickweed, weedkilling efficacy grade” value in the series on chickweed is listed as 4 (weed kill ratio 70% or more, less than 90%). Besides, in the series on wild oat, the “G: wild oat, weedkilling efficacy grade” value is given as 5 (weed kill ratio 90% or more, (practically complete withering)). Moreover, in the series with bulrush [1], the “B: bulrush, weed kill grade” value is listed as 5 (weed kill ratio 90% or more, (practically complete withering)). Further, in the series with oval-leafed pondweed [2], the “C (oval-leafed pondweed) weedkilling efficacy grade” value is 5 (weed kill ratio 90% or more, (practically complete withering)). For the same molecule, the “E: green foxtail” value in the series on green foxtail is reported as 5 (weed kill ratio 90% or more, (practically complete withering)). For the same molecule, the “f: beet, effect on crop grade” value in the series on beet is 5 (weed kill ratio 90% or more, (practically complete withering)). Further, the “A: barnyard grass, weed kill grade” value with barnyard grass [3] is on record as 5 (weed kill ratio 90% or more, (practically complete withering)). In the series with soybean, the “d: soybean, effect on crop grade” value is recorded as 4 (weed kill ratio 70% or more, less than 90%). Also, the “D: crabgrass, weedkilling efficacy grade” value with crabgrass is 5 (weed kill ratio 90% or more, (practically complete withering)). The “L: redroot pigweed” value in the series on redroot pigweed was 5 (weed kill ratio 90% or more, (practically complete withering)). In addition, in the series with transplanted rice, the “a: transplanted rice, effect” value was 4 (weed kill ratio 70% or more, less than 90%). Further, in the series on bulrush [4], the “B (bulrush) weedkilling efficacy grade” value is listed as 5 (weed kill ratio 90% or more, (practically complete withering)). The “I: Italian ryegrass” value with Italian ryegrass was 5 (weed kill ratio 90% or more, (practically complete withering)). Further, the “K: Indian mallow” value with Indian mallow was 0 (weed kill ratio 5% or less (practically no effect)). For the same molecule, the “c: corn, effect on crop grade” value with corn is listed as 4 (weed kill ratio 70% or more, less than 90%). In addition, the “C: oval-leafed pondweed, weed kill grade” value with oval-leafed pondweed [5] was 5 (weed kill ratio 90% or more, (practically complete withering)). Moreover, the “A (barnyard grass) weedkilling efficacy grade” value with barnyard grass [6] is on record as 4 (weed kill ratio 70% or more, less than 90%). For the same molecule, the “M: fig-leafed goosefoot” value in the series with fig-leafed goosefoot was 4 (weed kill ratio 70% or more, less than 90%). In addition, the “e: wheat, effect on crop grade” value with wheat was 3 (weed kill ratio 40% or more, less than 70%). For the same molecule, the “H: black-grass” value in the series with black-grass is 5 (weed kill ratio 90% or more, (practically complete withering)).
For `CC(C)(C(=O)Nc1cc(Cl)cc(Br)n1)N1COCN(c2ccccc2)C1=O` [A-2-24], the “N: chickweed, weedkilling efficacy grade” value in the series on chickweed is 4 (weed kill ratio 70% or more, less than 90%). Also, the “G: wild oat, weedkilling efficacy grade” value in the series with wild oat is 5 (weed kill ratio 90% or more, (practically complete withering)). Besides, in the series on bulrush [1], the “B: bulrush, weed kill grade” value is 5 (weed kill ratio 90% or more, (practically complete withering)). The “C (oval-leafed pondweed) weedkilling efficacy grade” value with oval-leafed pondweed [2] is recorded as 5 (weed kill ratio 90% or more, (practically complete withering)). The “E: green foxtail” value in the series with green foxtail was 5 (weed kill ratio 90% or more, (practically complete withering)). In addition, the “A: barnyard grass, weed kill grade” value in the series with barnyard grass [3] was 5 (weed kill ratio 90% or more, (practically complete withering)). In addition, the “d: soybean, effect on crop grade” value in the series with soybean is given as 1 (weed kill ratio 5% or more, less than 20%). Besides, in the series with crabgrass, the “D: crabgrass, weedkilling efficacy grade” value was 5 (weed kill ratio 90% or more, (practically complete withering)). The “L: redroot pigweed” value with redroot pigweed was 4 (weed kill ratio 70% or more, less than 90%). Also, the “a: transplanted rice, effect” value in the series with transplanted rice is on record as 0 (weed kill ratio 5% or less (practically no effect)). In addition, the “B (bulrush) weedkilling efficacy grade” value in the series on bulrush [4] is 5 (weed kill ratio 90% or more, (practically complete withering)). For the same molecule, the “I: Italian ryegrass” value in the series with Italian ryegrass is on record as 5 (weed kill ratio 90% or more, (practically complete withering)). Moreover, the “b: directly sown rice, effect on crop grade” value with directly sown rice is 4 (weed kill ratio 70% or more, less than 90%). Also, the “K: Indian mallow” value in the series with Indian mallow is 4 (weed kill ratio 70% or more, less than 90%). The “c: corn, effect on crop grade” value with corn was 0 (weed kill ratio 5% or less (practically no effect)). Moreover, the “C: oval-leafed pondweed, weed kill grade” value in the series with oval-leafed pondweed [5] is on record as 5 (weed kill ratio 90% or more, (practically complete withering)). The “A (barnyard grass) weedkilling efficacy grade” value in the series on barnyard grass [6] is given as 5 (weed kill ratio 90% or more, (practically complete withering)). For the same molecule, in the series on fig-leafed goosefoot, the “M: fig-leafed goosefoot” value is listed as 4 (weed kill ratio 70% or more, less than 90%). The “e: wheat, effect on crop grade” value in the series on wheat is listed as 4 (weed kill ratio 70% or more, less than 90%). The “H: black-grass” value with black-grass is 5 (weed kill ratio 90% or more, (practically complete withering)).
